Usually IC50 stands for the concentration at which inhibition is half-maximal.

The target of one test is T1, Axl (Homo sapiens, UniProt P30530).
T1 sequence (P30530 26-894): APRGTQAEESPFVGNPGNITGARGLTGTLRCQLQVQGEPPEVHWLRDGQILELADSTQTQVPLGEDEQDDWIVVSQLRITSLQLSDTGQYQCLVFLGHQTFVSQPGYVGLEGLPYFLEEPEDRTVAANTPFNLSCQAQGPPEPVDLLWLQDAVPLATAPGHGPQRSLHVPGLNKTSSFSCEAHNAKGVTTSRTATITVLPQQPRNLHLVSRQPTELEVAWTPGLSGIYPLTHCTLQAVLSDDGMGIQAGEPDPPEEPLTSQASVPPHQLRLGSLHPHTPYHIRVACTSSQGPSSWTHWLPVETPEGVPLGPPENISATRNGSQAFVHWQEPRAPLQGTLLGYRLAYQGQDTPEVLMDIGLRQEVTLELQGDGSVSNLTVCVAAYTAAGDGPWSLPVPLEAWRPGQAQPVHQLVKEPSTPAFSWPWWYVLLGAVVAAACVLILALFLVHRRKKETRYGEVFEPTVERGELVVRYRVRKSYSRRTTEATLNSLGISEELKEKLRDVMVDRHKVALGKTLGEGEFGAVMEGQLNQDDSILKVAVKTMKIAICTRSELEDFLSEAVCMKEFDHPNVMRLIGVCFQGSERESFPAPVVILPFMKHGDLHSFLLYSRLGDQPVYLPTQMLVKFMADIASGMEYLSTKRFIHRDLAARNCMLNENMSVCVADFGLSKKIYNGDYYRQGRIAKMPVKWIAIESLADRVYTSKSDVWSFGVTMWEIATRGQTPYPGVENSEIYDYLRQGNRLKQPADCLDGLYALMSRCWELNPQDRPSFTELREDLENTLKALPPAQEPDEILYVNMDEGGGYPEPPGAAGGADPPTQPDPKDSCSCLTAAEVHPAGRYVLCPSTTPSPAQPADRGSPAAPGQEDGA
The test is described as follows: Biochemical potency, HTRF KinEASE-TK kinase assay. Set-up: purchased Invitrogen. The following applies: 5 nM AXL, 700 μM ATP. The gist of the method: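 Steps: compound plus kinase, 1 h RT; add ATP (700 µM final) and biotin-TK substrate (800 nM final); run 2 h RT; stop into streptavidin-XL665/anti-phospho cryptate detection mix, 1 h; read 665/620. AXL at 5 nM, TYRO3 and MER at 1 nM.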
For orientation: Time-resolved FRET reads energy transfer from a long-lived donor to a nearby acceptor.

In another test the target is T2, recombinant human TYRO3 (Homo sapiens, UniProt Q06418).
T2 construct: purchased Invitrogen
T2 sequence (Q06418 41-890): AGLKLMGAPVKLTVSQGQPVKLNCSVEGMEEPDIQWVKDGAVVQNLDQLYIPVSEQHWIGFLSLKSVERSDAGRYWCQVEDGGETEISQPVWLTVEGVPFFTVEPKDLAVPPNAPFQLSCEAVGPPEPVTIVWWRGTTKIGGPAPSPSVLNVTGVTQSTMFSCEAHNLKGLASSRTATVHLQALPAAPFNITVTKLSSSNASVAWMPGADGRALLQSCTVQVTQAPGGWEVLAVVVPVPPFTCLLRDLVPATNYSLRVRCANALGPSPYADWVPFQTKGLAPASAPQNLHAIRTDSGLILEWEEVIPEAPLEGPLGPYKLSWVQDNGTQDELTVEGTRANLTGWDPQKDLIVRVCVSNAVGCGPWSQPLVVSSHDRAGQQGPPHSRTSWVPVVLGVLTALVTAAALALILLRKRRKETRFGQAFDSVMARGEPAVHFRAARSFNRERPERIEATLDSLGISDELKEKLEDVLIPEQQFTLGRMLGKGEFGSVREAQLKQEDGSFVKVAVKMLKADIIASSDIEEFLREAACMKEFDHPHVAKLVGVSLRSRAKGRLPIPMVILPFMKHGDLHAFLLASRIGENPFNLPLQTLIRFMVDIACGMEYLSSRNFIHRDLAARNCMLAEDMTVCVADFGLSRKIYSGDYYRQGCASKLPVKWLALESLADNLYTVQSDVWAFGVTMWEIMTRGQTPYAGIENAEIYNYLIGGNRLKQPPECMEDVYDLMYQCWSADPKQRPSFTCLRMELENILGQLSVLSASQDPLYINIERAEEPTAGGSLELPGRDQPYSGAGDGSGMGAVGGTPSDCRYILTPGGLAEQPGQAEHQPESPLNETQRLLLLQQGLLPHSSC
The test is described as follows: Biochemical potency, HTRF KinEASE-TK kinase assay. The following applies: 1 nM TYRO3, 700 μM ATP. The protocol: Measurement of Biochemical Compound Potency of Axl Inhibitors
Purified recombinant human AXL, TYRO3 and MER proteins were purchased from Invitrogen™. 10 nM AXL, 2 nM TYRO3 or MER were incubated with varying concentrations of compounds in 50 mM HEPES, pH 7.4, 10 mM MgCl2, 0.01% BSA, 1 mM DTT and 2% DMSO in a total volume of 20 μl in a 384-well microplate (Corning™ #3640) at RT for 1 h. The AXL, TYRO3 and MER enzymatic reaction was initiated by transferring 10 μl of enzyme and compound mixture into 10 μl of 1.6 μM TK Substrate-biotin (HTRF® KinEASE-TK kit, Cisbio) and 1400 μM ATP pre-incubated in 50 mM HEPES, pH 7.4, 10 mM MgCl2, 0.01% BSA, 1 mM DTT in a 384-well microplate (Corning™ #3640) at RT, giving the final reaction conditions: 5 nM AXL, 1 nM TYRO3 or MER, 800 nM TK Substrate-biotin and 700 μM ATP in 50 mM HEPES, pH 7.4, 10 mM MgCl2, 0.01% BSA, 1 mM DTT and 1% DMSO with varying concentrations of compounds. Following 2 h incubation at RT, the AXL, TYRO3 and MER enzymatic reaction was stopped by transfer of 10 μl of reaction into 10 μl of detection mix (400 nM Streptavidin-XL665, 200-fold dilution TK Antibody-Cryptate and detection buffer, HTRF® KinEASE-TK kit, Cisbio) in a white 384-well microplate (Perkin Elmer, OptiPlate 384). After 1 h incubation at RT, the plate was put into a plate reader (Evision) to read at 665/620 nm (acceptor/donor) for HTRF. The value of the DMSO blank (MIN inhibition=100% activity) was used as a negative control. The positive control was established by adding 5 μl of enzyme and DMSO mixture into 10 μl of detection mix followed by addition of 5 μl of TK Substrate-biotin and ATP mixture (MAX inhibition=0% activity). To calculate the percent activity, Equation 1 was used. Ratio665/620 is the value at a given compound concentration: […]

Take `Cn1cnnc1-c1ccc(-c2n[nH]c3ncc(-c4ccc5c(c4)CC[C@@H](N4C6COCC4C6)CC5)cc23)cc1` [Example 169, 6-[(7S)-2-{3-[4-(4-Methyl-4H-1,2,4-triazol-3-yl)phenyl]-1H-pyrazolo[3,4-b]pyridin-5-yl}-6,7,8,9-tetrahydro-5H-benzo[7]annulen-7-yl]-3-oxa-6-azabicyclo[3.1.1]heptane]: the IC50 against Axl and at recombinant human TYRO3 was < 100 nM each time.
In the case of `Cn1ccnc1-c1ccc(-c2n[nH]c3ncc(-c4ccc5c(c4)CC[C@@H](N4C6COCC4C6)CC5)cc23)cc1` [Example 111, 6-[(7S)-2-{3-[4-(1-Methyl-1H-imidazol-2-yl)phenyl]-1H-pyrazolo[3,4-b]pyridin-5-yl}-6,7,8,9-tetrahydro-5H-benzo[7]annulen-7-yl]-3-oxa-6-azabicyclo[3.1.1]heptane], the IC50 against Axl and at recombinant human TYRO3 was < 100 nM each time.
With `Cc1ccccc1-c1ccc(-c2n[nH]c3ncc(-c4ccc5c(c4)CC[C@@H](N4C6COCC4C6)CC5)cc23)nc1` [Example 98, 6-[(7S)-2-{3-[5-(2-Methylphenyl)pyridin-2-yl]-1H-pyrazolo[3,4-b]pyridin-5-yl}-6,7,8,9-tetrahydro-5H-benzo[7]annulen-7-yl]-3-oxa-6-azabicyclo[3.1.1]heptane], the IC50 at Axl is < 100 nM; at recombinant human TYRO3, > 1000 nM.
For the molecule `c1ccc(-n2cc(-c3n[nH]c4ncc(-c5ccc6c(c5)CC[C@@H](N5C7COCC5C7)CC6)cc34)cn2)nc1` [Example 168, 6-[(7S)-2-{3-[1-(Pyridin-2-yl)-1H-pyrazol-4-yl]-1H-pyrazolo[3,4-b]pyridin-5-yl}-6,7,8,9-tetrahydro-5H-benzo[7]annulen-7-yl]-3-oxa-6-azabicyclo[3.1.1]heptane], the results for the IC50 against Axl and at recombinant human TYRO3 were < 100 nM and 100 to 1000 nM, respectively.
The corresponding values for `C[C@@H]1CCCN1[C@@]1(C)CCc2ccc(-c3cnc4[nH]cc(-c5ccc(-c6ccccn6)cc5)c4c3)cc2CC1` [Example 156, 2-(4-{5-[(7S)-7-Methyl-7-[(2R)-2-methylpyrrolidin-1-yl]-6,7,8,9-tetrahydro-5H-benzo[7]annulen-2-yl]-1H-pyrrolo[2,3-b]pyridin-3-yl}phenyl)pyridine] are < 100 nM and 100 to 1000 nM.
For `O=C1OCCN1c1cccnc1-c1ccc(-c2n[nH]c3ncc(-c4ccc5c(c4)CC[C@@H](N4C6COCC4C6)CC5)cc23)cc1` [Example 121, 3-[2-(4-{5-[(7S)-7-{3-Oxa-6-azabicyclo[3.1.1]heptan-6-yl}-6,7,8,9-tetrahydro-5H-benzo[7]annulen-2-yl]-1H-pyrazolo[3,4-b]pyridin-3-yl}phenyl)pyridin-3-yl]-1,3-oxazolidin-2-one], in that order: < 100 nM and < 100 nM.
The corresponding values for `CC(C)(O)c1ccccc1-c1ccc(-c2c[nH]c3ncc(-c4ccc5c(c4)CC[C@@H](N4C6COCC4C6)CC5)cc23)cn1` [Example 114, 2-[2-(5-{5-[(7S)-7-{3-Oxa-6-azabicyclo[3.1.1]heptan-6-yl}-6,7,8,9-tetrahydro-5H-benzo[7]annulen-2-yl]-1H-pyrrolo[2,3-b]pyridin-3-yl}pyridin-2-yl)phenyl]propan-2-ol] are < 100 nM and 100 to 1000 nM.
In the case of `COCCOc1cccnc1-c1ccc(-c2n[nH]c3ncc(-c4ccc5c(c4)CC[C@@H](N4C6COCC4C6)CC5)cc23)cc1` [Example 180, 6-[(7S)-2-(3-{4-[3-(2-Methoxyethoxy)pyridin-2-yl]phenyl}-1H-pyrazolo[3,4-b]pyridin-5-yl)-6,7,8,9-tetrahydro-5H-benzo[7]annulen-7-yl]-3-oxa-6-azabicyclo[3.1.1]heptane], the IC50 at Axl and at recombinant human TYRO3 was < 100 nM throughout.
In the case of `O=C1CCCCN1c1cccnc1-c1ccc(-c2n[nH]c3ncc(-c4ccc5c(c4)CC[C@@H](N4C6COCC4C6)CC5)cc23)cc1` [Example 127, 1-[2-(4-{5-[(7S)-7-{3-Oxa-6-azabicyclo[3.1.1]heptan-6-yl}-6,7,8,9-tetrahydro-5H-benzo[7]annulen-2-yl]-1H-pyrazolo[3,4-b]pyridin-3-yl}phenyl)pyridin-3-yl]piperidin-2-one], the IC50 against Axl and at recombinant human TYRO3 was < 100 nM each time.
On to `Cc1nccnc1-c1ccc(-c2n[nH]c3ncc(-c4ccc5c(c4)CC[C@@H](N4C6COCC4C6)CC5)cc23)cc1` [Example 175, 6-[(7S)-2-{3-[4-(3-Methylpyrazin-2-yl)phenyl]-1H-pyrazolo[3,4-b]pyridin-5-yl}-6,7,8,9-tetrahydro-5H-benzo[7]annulen-7-yl]-3-oxa-6-azabicyclo[3.1.1]heptane], for which the IC50 against Axl is < 100 nM; on recombinant human TYRO3, 100 to 1000 nM.
For `Cc1ccnc(-c2ccc(-c3n[nH]c4ncc(-c5ccc6c(c5)CC[C@@H](N5C7COCC5C7)CC6)cc34)cc2)c1` [Example 117, 6-[(7S)-2-{3-[4-(4-Methylpyridin-2-yl)phenyl]-1H-pyrazolo[3,4-b]pyridin-5-yl}-6,7,8,9-tetrahydro-5H-benzo[7]annulen-7-yl]-3-oxa-6-azabicyclo[3.1.1]heptane], in that order: < 100 nM and 100 to 1000 nM.
In the case of `CCOc1cccnc1-c1ccc(-c2n[nH]c3ncc(-c4ccc5c(c4)CC[C@@H](N4C6COCC4C6)CC5)cc23)cc1` [Example 181, 6-[(7S)-2-{3-[4-(3-Ethoxypyridin-2-yl)phenyl]-1H-pyrazolo[3,4-b]pyridin-5-yl}-6,7,8,9-tetrahydro-5H-benzo[7]annulen-7-yl]-3-oxa-6-azabicyclo[3.1.1]heptane], the IC50 against Axl was < 100 nM; at recombinant human TYRO3 it was 100 to 1000 nM.

The record behind these values is US12195482B1 (Arcus Biosciences, Inc., priority 2022, dated 2025).
